Experimental data from ChEMBL document CHEMBL1150489, “Increase of the anti-HIV activity of D4T in human T-cell culture by the use of the sate pronucleotide approach” (Bioorg Med Chem Lett, 1995).

Key:
CEM-TK(-) [1] = assay: (§1) Tested in vitro for the antiviral activity in CEM/TK- cells infected with HIV-1; assay type: functional; settings: Homo sapiens
CEM-TK(-) [2] = assay: as §1; assay type: functional, cell-based; settings: Homo sapiens
CEM-SS [3] = assay: (§2) Tested in vitro for the antiviral activity in CEM-SS cells infected with HIV-1; assay type: functional, cell-based; settings: Homo sapiens
CEM-SS [4] = assay: as §2; assay type: functional; settings: Homo sapiens
MT4 [5] = assay: (§3) Tested in vitro for the antiviral activity in MT-4 cells infected with HIV-1; assay type: functional; settings: Homo sapiens
MT4 [6] = assay: as §3; assay type: functional, cell-based; settings: Homo sapiens
MT4 [7] = assay: as §3; assay type: functional, Homo sapiens
[8] = (§4) Tested in vitro for the antiviral activity in PBM cells infected with HIV-1; assay type: functional, cell-based; settings: Homo sapiens, PBMC
[9] = as §4; assay type: functional; settings: Homo sapiens, PBMC
CEM-TK(-) [10] = assay: as §1; assay type: functional, Homo sapiens
CEM-SS [11] = assay: as §2; assay type: functional, Homo sapiens

| Compound | CC50 (CEM-TK(-) [1]) | EC50 (CEM-TK(-) [2]) | EC50 (CEM-SS [3]) | CC50 (CEM-SS [4]) | CC50 (MT4 [5]) | EC50 (MT4 [6]) | Reduction (MT4 [7]) | EC50 [8] | CC50 [9] | Reduction (CEM-TK(-) [10]) | Reduction (CEM-SS [11]) |
| --- | --- | --- | --- | --- | --- | --- | --- | --- | --- | --- | --- |
| CC(=O)SCCOP(=O)(OCCSC(C)=O)OCC1C=CC(n2cc(C)c(=O)[nH]c2=O)O1 (stereo not given) | 60 µM | 0.012 µM | 0.006 µM | 68 µM | > 100 µM | 0.016 µM | 19% | 0.007 µM | 22 µM | – | – |
| Cc1cn([C@H]2C=C[C@@H](CO)O2)c(=O)[nH]c1=O [STAVUDINE] | > 100 µM | 10 µM | 0.059 µM | > 100 µM | > 100 µM | 0.28 µM | 10% | 0.05 µM | 42 µM | 6% | 21% |
